# Test results as given in ChEMBL document CHEMBL3792365, “Dioxol and dihydrodioxin analogs of 2- and 3-phenylacetonitriles as potent anti-cancer agents with nanomolar activity against a variety of human cancer cells” (2016).
# Experiments:
# Type in all cases: functional
# MDA-MB-435 = assay: Growth inhibition of human MDA-MB-435 cells at 10 uM after 48 hrs by sulforhodamine B assay; details: MDA-MB-435, 48 h, values are per cent of control
# [1] = Growth inhibition of human SNB19 cells at 10 uM after 48 hrs by sulforhodamine B assay; details: SNB-19, 48 h, values are per cent of control
# [2] = Growth inhibition of human Caki1 cells at 10 uM after 48 hrs by sulforhodamine B assay; details: CAKI-1, 48 h, values are per cent of control
# [3] = Growth inhibition of human DU145 cells at 10 uM after 48 hrs by sulforhodamine B assay; details: DU-145, 48 h, values are per cent of control
# NCI-H522 = assay: Growth inhibition of human NCI-H522 cells at 10 uM after 48 hrs by sulforhodamine B assay; details: NCI-H522, 48 h, values are per cent of control
# A498 = assay: Growth inhibition of human A498 cells at 10 uM after 48 hrs by sulforhodamine B assay; details: A498, 48 h, values are per cent of control
# SN12C = assay: Growth inhibition of human SN12C cells at 10 uM after 48 hrs by sulforhodamine B assay; details: values are per cent of control
# [4] = Growth inhibition of human SW620 cells at 10 uM after 48 hrs by sulforhodamine B assay; details: SW-620, 48 h, values are per cent of control
# NCI-H322M = assay: Growth inhibition of human NCI-H322M cells at 10 uM after 48 hrs by sulforhodamine B assay; details: values are per cent of control
# [5] = Growth inhibition of human OVCAR8 cells at 10 uM after 48 hrs by sulforhodamine B assay; details: OVCAR-8, 48 h, values are per cent of control
# [6] = Growth inhibition of human SKOV3 cells at 10 uM after 48 hrs by sulforhodamine B assay; details: SK-OV-3, 48 h, values are per cent of control
# [7] = Growth inhibition of human HCT15 cells at 10 uM after 48 hrs by sulforhodamine B assay; details: HCT-15, 48 h, values are per cent of control
# SK-MEL-5 = assay: Growth inhibition of human SK-MEL-5 cells at 10 uM after 48 hrs by sulforhodamine B assay; details: SK-MEL-5, 48 h, values are per cent of control
# T47D = assay: Growth inhibition of human T47D cells at 10 uM after 48 hrs by sulforhodamine B assay; details: values are per cent of control
# MDA-MB-231 = assay: Growth inhibition of human MDA-MB-231 cells at 10 uM after 48 hrs by sulforhodamine B assay; details: MDA-MB-231, 48 h, values are per cent of control
# NCI-H460 = assay: Growth inhibition of human NCI-H460 cells at 10 uM after 48 hrs by sulforhodamine B assay; details: NCI-H460, 48 h, values are per cent of control
# HT-29 = assay: Growth inhibition of human HT-29 cells at 10 uM after 48 hrs by sulforhodamine B assay; details: HT-29, 48 h, values are per cent of control
# [8] = Growth inhibition of human HCT116 cells at 10 uM after 48 hrs by sulforhodamine B assay; details: HCT-116, 48 h, values are per cent of control
# [9] = Growth inhibition of human NCI-ADR-RES cells at 10 uM after 48 hrs by sulforhodamine B assay; details: values are per cent of control
# [10] = Growth inhibition of human COLO205 cells at 10 uM after 48 hrs by sulforhodamine B assay; details: COLO 205, 48 h, values are per cent of control
# [11] = Growth inhibition of human OVCAR4 cells at 10 uM after 48 hrs by sulforhodamine B assay; details: OVCAR-4, 48 h, values are per cent of control
# M14 = assay: Growth inhibition of human M14 cells at 10 uM after 48 hrs by sulforhodamine B assay; details: M14, 48 h, values are per cent of control
# [12] = Growth inhibition of human BT549 cells at 10 uM after 48 hrs by sulforhodamine B assay; details: BT-549, 48 h, values are per cent of control
# U-251 = assay: Growth inhibition of human U251 cells at 10 uM after 48 hrs by sulforhodamine B assay; details: U-251, 48 h, values are per cent of control
# ACHN = assay: Growth inhibition of human ACHN cells at 10 uM after 48 hrs by sulforhodamine B assay; details: values are per cent of control
# [13] = Growth inhibition of human SF295 cells at 10 uM after 48 hrs by sulforhodamine B assay; details: SF-295, 48 h, values are per cent of control
# [14] = Growth inhibition of human Hs 578T cells at 10 uM after 48 hrs by sulforhodamine B assay; details: values are per cent of control
# [15] = Growth inhibition of human OVCAR5 cells at 10 uM after 48 hrs by sulforhodamine B assay; details: OVCAR-5, 48 h, values are per cent of control
# A549 = assay: Growth inhibition of human A549/ATCC cells at 10 uM after 48 hrs by sulforhodamine B assay; details: A549, 48 h, values are per cent of control
# [16] = Growth inhibition of human UACC62 cells at 10 uM after 48 hrs by sulforhodamine B assay; details: UACC-62, 48 h, values are per cent of control
# KM12 = assay: Growth inhibition of human KM12 cells at 10 uM after 48 hrs by sulforhodamine B assay; details: KM12, 48 h, values are per cent of control
# [17] = Growth inhibition of human SF539 cells at 10 uM after 48 hrs by sulforhodamine B assay; details: SF-539, 48 h, values are per cent of control
# NCI-H226 = assay: Growth inhibition of human NCI-H226 cells at 10 uM after 48 hrs by sulforhodamine B assay; details: NCI-H226, 48 h, values are per cent of control
# NCI-H23 = assay: Growth inhibition of human NCI-H23 cells at 10 uM after 48 hrs by sulforhodamine B assay; details: NCI-H23, 48 h, values are per cent of control
# MDA-MB-468 = assay: Growth inhibition of human MDA-MB-468 cells at 10 uM after 48 hrs by sulforhodamine B assay; details: MDA-MB-468, 48 h, values are per cent of control
# SR = assay: Growth inhibition of human SR cells at 10 uM after 48 hrs by sulforhodamine B assay; details: values are per cent of control
# K562 = assay: Growth inhibition of human K562 cells at 10 uM after 48 hrs by sulforhodamine B assay; details: K562, 48 h, values are per cent of control
# [18] = Growth inhibition of human SF268 cells at 10 uM after 48 hrs by sulforhodamine B assay; details: SF-268, 48 h, values are per cent of control
# [19] = Growth inhibition of human LOXIMVI cells at 10 uM after 48 hrs by sulforhodamine B assay; details: LOX IMVI, values are per cent of control
# [20] = Growth inhibition of human TK10 cells at 10 uM after 48 hrs by sulforhodamine B assay; details: TK-10, 48 h, values are per cent of control
smiles,measurement,setting,value
COc1cc(/C=C(\C#N)c2ccc3c(c2)OCO3)cc(OC)c1OC,"growth, % of control at 10 µM",MDA-MB-435,74.7%
same,"growth, % of control at 10 µM",[1],93.8%
same,"growth, % of control at 10 µM",[2],86.6%
same,"growth, % of control at 10 µM",[3],107%
same,"growth, % of control at 10 µM",NCI-H522,85.8%
same,"growth, % of control at 10 µM",A498,81.8%
same,"growth, % of control at 10 µM",SN12C,95.4%
same,"growth, % of control at 10 µM",[4],98.9%
same,"growth, % of control at 10 µM",NCI-H322M,104%
same,"growth, % of control at 10 µM",[5],96.3%
same,"growth, % of control at 10 µM",[6],103%
same,"growth, % of control at 10 µM",[7],85.7%
same,"growth, % of control at 10 µM",SK-MEL-5,92.2%
same,"growth, % of control at 10 µM",T47D,70.7%
same,"growth, % of control at 10 µM",MDA-MB-231,88.2%
same,"growth, % of control at 10 µM",NCI-H460,107%
same,"growth, % of control at 10 µM",HT-29,88.8%
same,"growth, % of control at 10 µM",[8],99.4%
same,"growth, % of control at 10 µM",[9],93.9%
same,"growth, % of control at 10 µM",[10],104%
same,"growth, % of control at 10 µM",[11],89.2%
same,"growth, % of control at 10 µM",M14,95%
same,"growth, % of control at 10 µM",[12],82.1%
same,"growth, % of control at 10 µM",U-251,96.6%
same,"growth, % of control at 10 µM",ACHN,96%
same,"growth, % of control at 10 µM",[13],96.1%
same,"growth, % of control at 10 µM",[14],100%
same,"growth, % of control at 10 µM",[15],99.7%
same,"growth, % of control at 10 µM",A549,93.6%
same,"growth, % of control at 10 µM",[16],87.6%
same,"growth, % of control at 10 µM",KM12,93.8%
same,"growth, % of control at 10 µM",[17],92.4%
same,"growth, % of control at 10 µM",NCI-H226,101%
same,"growth, % of control at 10 µM",NCI-H23,94.5%
same,"growth, % of control at 10 µM",MDA-MB-468,99.6%
same,"growth, % of control at 10 µM",SR,83.5%
same,"growth, % of control at 10 µM",K562,80.4%
same,"growth, % of control at 10 µM",[18],94.4%
same,"growth, % of control at 10 µM",[19],109%
same,"growth, % of control at 10 µM",[20],98.1%
COc1ccc(/C(C#N)=C/c2ccc3c(c2)OCCO3)cc1,"growth, % of control at 10 µM",MDA-MB-435,-29.8%
same,"growth, % of control at 10 µM",[1],83.3%
same,"growth, % of control at 10 µM",[2],64.2%
same,"growth, % of control at 10 µM",[3],84.7%
same,"growth, % of control at 10 µM",NCI-H522,39.3%
same,"growth, % of control at 10 µM",A498,70.9%
same,"growth, % of control at 10 µM",SN12C,72.1%
same,"growth, % of control at 10 µM",[4],28.8%
same,"growth, % of control at 10 µM",NCI-H322M,77.5%
same,"growth, % of control at 10 µM",[5],77.1%
same,"growth, % of control at 10 µM",[6],81%
same,"growth, % of control at 10 µM",[7],43.4%
same,"growth, % of control at 10 µM",SK-MEL-5,45%
same,"growth, % of control at 10 µM",T47D,40.4%
same,"growth, % of control at 10 µM",MDA-MB-231,68.4%
same,"growth, % of control at 10 µM",NCI-H460,33.4%
same,"growth, % of control at 10 µM",HT-29,21.8%
same,"growth, % of control at 10 µM",[8],38.8%
same,"growth, % of control at 10 µM",[9],34.4%
same,"growth, % of control at 10 µM",[10],50.5%
same,"growth, % of control at 10 µM",[11],94.6%
same,"growth, % of control at 10 µM",M14,38.5%
same,"growth, % of control at 10 µM",[12],56.6%
same,"growth, % of control at 10 µM",U-251,36.3%
same,"growth, % of control at 10 µM",ACHN,87.7%
same,"growth, % of control at 10 µM",[13],66.7%
same,"growth, % of control at 10 µM",[14],79.6%
same,"growth, % of control at 10 µM",[15],88%
same,"growth, % of control at 10 µM",A549,41.5%
same,"growth, % of control at 10 µM",[16],53.7%
same,"growth, % of control at 10 µM",KM12,27.8%
same,"growth, % of control at 10 µM",[17],63.7%
same,"growth, % of control at 10 µM",NCI-H226,81.2%
same,"growth, % of control at 10 µM",NCI-H23,78.3%
same,"growth, % of control at 10 µM",MDA-MB-468,14.8%
same,"growth, % of control at 10 µM",SR,-1.3%
same,"growth, % of control at 10 µM",K562,18.7%
same,"growth, % of control at 10 µM",[18],71.9%
same,"growth, % of control at 10 µM",[19],56.7%
same,"growth, % of control at 10 µM",[20],65.2%
